Assay results from patent publication US20210338686A1, “COMBINATION CANCER THERAPY WITH PENTAAZA MACROCYCLIC RING COMPLEX AND PLATINUM-BASED ANTICANCER AGENT” (Galera Labs, LLC, priority 2018, published 2021).

How the values were obtained:
[1] = test system: acute, radiation-induced oral mucositis; conditions: hamster oral mucositis; Murphy et al. 2008; cited from earlier work
[2] = test system: inflammation; conditions: rat model; Salvemini et al. 1999; cited from earlier work
[3] = test system: collagen-induced arthritis; conditions: rat collagen-induced arthritis; Salvemini et al. 2001; cited from earlier work
[4] = test system: lethal total body irradiation; conditions: adult mice, Thompson et al. 2010; cited from earlier work
[5] = test system: experimental model of colitis; conditions: rats; Cuzzocrea et al. 2001; cited from earlier work
[6] = test system: H460 and H1299 (wild type) cells; assay: Hydrogen peroxide (P0-1 probe); type: cell-based, human; conditions: FIGS. 9A-9D
[7] = test system: H460 and H1299 (wild type) cells; assay: Total reactive oxygen species (CellROX probe, flow cytometer); type: cell-based, human; conditions: FIGS. 7A-7D
Description: After the treatments and incubations CellROX fluorogenic probes for total ROS were added for 30 minutes continued incubation and the CellROX signal was measured using a flow cytometer.

[8] = test system: cisplatin-induced acute kidney injury (AKI) model, male C57BL/6J mice; assay: Cisplatin-induced acute kidney injury (AKI) model in mice; type: in vivo
Text: 4 month old male C57BL/6J mice (young) were purchased from Jackson Laboratories and 18 month old mice (old) were obtained as collaboration with Dr. Amy Sindler (University of Iowa) from the National institute of Aging. All mice were maintained in accordance with ACURF approval #4121235 at the University of Iowa Animal Care facility. Mice were maintained on normal diets and water ad libitum through the course of the experiment.
Animals were weighed every other day following the start of treatment with GC4419.

[9] = test system: H460 human non-small cell lung carcinoma (NSCLC) cells; assay: Survival of H460 cells in culture with GC4419 and cisplatin; type: cell-based; conditions: 24 μM GC4419 added to cisplatin (indicated concentrations), 120 hrs, vs cisplatin alone; FIG. 1
Description: After 120 hrs the surviving fraction of cells was determined.

[10] = test system: PARP in H1299CAT cells; assay: PARP activation in H1299CAT cells with doxycycline induction of CAT overexpression; type: cell-based, human; conditions: CAT induced with doxycycline, 24 hr
Text: When treated with doxcycline, H1299CAT cells express greater levels of human catalase (CAT) than the “parent” cells, H1299 (wild type), eliminating all or part of the H2O2 generated from superoxide by GC4419 or other Mn pentaazamacrocyclic dismutase mimetcs.

[11] = test system: oral mucositis in head-and-neck cancer patients; conditions: head-and-neck cancer patients undergoing chemoradiation therapy; Anderson 2015; cited from earlier work
[12] = test system: PARP in H1299 (wild type) NSCLC cells; assay: PARP activation in H1299 (wild type) cells (Western blot); type: cell-based, human; conditions: 24 hr
[13] = test system: athymic female Nu/Nu (nude) mice implanted with SQ20B human head and neck squamous cell carcinoma cells; assay: Cisplatin-induced hematotoxicity in nude mice bearing SQ20B tumors; type: in vivo; conditions: 10 mg/kg GC4419 every day added to cisplatin + IR
Description: 7 week old athymic female Nu/Nu (nude) mice were implanted in a hind leg with SQ20B human head and neck squamous cell carcinoma cells. […] Mice were assessed for blood counts by tail vein blood collection either 2 days or 2 weeks after the treatment period.

[14] = test system: H460 and H1299 (wild type) cells; assay: Mitochondrial superoxide (MitoSOX probe, flow cytometer); type: cell-based, human; conditions: FIGS. 8A-8D
[15] = test system: PARP (poly (ADP ribosyl) polymerase) in H460 NSCLC cells; assay: PARP activation in H460 cells (Western blot, 89 kd active / 116 kd inactive form); type: cell-based, human; conditions: 24 hr
Text: PARP is a nuclear enzyme involved in DNA repair of single strand breaks and is activated following cell stress including chemotherapy and irradiation.

[16] = test system: H1299 human NSCLC cells, modified to inducibly overexpress catalase (CAT) (H1299CAT); assay: Survival of H1299CAT cells with GC4419, cisplatin and catalase overexpression; type: cell-based; conditions: 24 μM GC4419 added to cisplatin, 120 hrs, FIG. 2
Text: CAT overexpression in this line (H1299CAT) was induced by administration of doxycycline, which turned on transcription of the inserted catalase genes.

[17] = test system: VEGFr inhibitor-induced pulmonary disease; conditions: rat model; Tuder et al. 2003; cited from earlier work
[18] = 24 μM GC4419, both cancer cell lines
[19] = 10 mg/kg GC4419 daily from 4 days prior to 10 mg/kg cisplatin, 72 hours after cisplatin, FIG. 10A
[20] = 1 μM cisplatin or cisplatin plus 6 Gy IR

## [Cl-].[Cl-].[Mn+2].c1cc2nc(c1)CN[C@@H]1CCCC[C@H]1NCCN[C@@H]1CCCC[C@H]1NC2 [GC4403]
[1]
  radiation damage: attenuate the radiation damage
[2]
  inflammation: inhibit inflammation
[3]
  joint disease: prevent joint disease
[4]
  radiation damage: attenuate the radiation damage
[5]
  injury to the colon: very significantly reduce the injury to the colon

## [Cl][Mn][Cl].c1cc2nc(c1)CN[C@H]1CCCC[C@@H]1NCCN[C@H]1CCCC[C@@H]1NC2 [GC4419]
[6]; [18]
  basal levels of H2O2: significantly increases both the basal levels of H2O2
[6]; 24 μM GC4419 added to cisplatin or cisplatin plus IR, both cancer cell lines
  H2O2: significantly further increases the increase in H2O2
[7]; 24 μM GC4419 added to cisplatin therapy
  total ROS (CellROX signal): synergistic effect on total ROS
[7]; 24 μM GC4419 used alone, either cancer cell line
  total ROS (CellROX signal): little effect on total ROS
[8]; 10 mg/kg GC4419 daily + 10 mg/kg cisplatin, old mice, FIG. 10D
  survival: prevented cisplatin mortality in the old mice
[8]; 10 mg/kg GC4419 daily + 10 mg/kg cisplatin, young and old mice, FIG. 10C
  body weight: reduced the amount of weight loss in both sets of mice
[8]; 10 mg/kg GC4419 daily + 10 mg/kg cisplatin, FIG. 10B
  kidney injury biomarkers KIM1 and NGAL: prevented that injury
[8]; [19]
  creatinine level: completely prevented these increases
  whole blood urea nitrogen (BUN) level: completely prevented these increases
[9]
  surviving fraction of cells: decreased the surviving fraction of H460 cells
[10]; 24 μM GC4419 + 1 μM cisplatin, p<0.01, FIG. 6B
  PARP activation response to cisplatin: reduced the PARP activation response
[10]; 24 μM GC4419 + 6 Gy IR + 1 μM cisplatin, p<0.001, FIG. 6C
  PARP activation response to IR+cisplatin: reduced the PARP activation response
[10]; 24 μM GC4419 + 6 Gy IR, p<0.05, FIG. 6C
  PARP activation response to IR: reduced the PARP activation response
[11]
  oral mucositis: reduce oral mucositis
[12]; 24 μM GC4419 added to 10 μM cisplatin, vs cisplatin, FIG. 4
  PARP activity (ratio of 89 kd active form to 116 kd inactive form): further and significantly p<0.01) increased PARP activity
[12]; 24 μM GC4419 added to 6 Gy IR + 1 μM cisplatin, FIG. 6A
  PARP activity (ratio of 89 kd active form to 116 kd inactive form): significantly increased (p<0.0.05)
[12]; 24 μM GC4419 added to 6 Gy IR, vs radiation alone, FIG. 6A
  PARP activity (ratio of 89 kd active form to 116 kd inactive form): significantly increased PARP activity over that seen with radiation alone
[13]; 2 days and 2 weeks after the end of treatment, FIG. 11B
  leukocyte (WBC) and lymphocyte count: stimulated leukocyte (WBC) and proportionally lymphocyte subset production
[13]; FIG. 11C
  neutrophil percentage: maintained neutrophil percentage at apparently normal levels
[13]; FIG. 11D
  eosinophil percentage: maintained eosinophil percentage at apparently normal levels
[13]; two days after the end of treatments, FIG. 11A
  platelets: significantly restored platelet levels
[14]; [18]
  basal levels of mitochondrial superoxide (MitoSOX signal): significantly reduced the basal levels of mitochondrial superoxide
[14]; 24 μM GC4419 added to cisplatin or cisplatin plus IR
  mitochondrial superoxide (MitoSOX signal): significantly reduced the increase in mitochondrial superoxide
[15]; 24 μM GC4419 added to 1 μM cisplatin, vs cisplatin, FIG. 3
  PARP activity (ratio of 89 kd active form to 116 kd inactive form): further and significantly (p<0.01) increased PARP activity
[15]; 24 μM GC4419 added to 6 Gy IR + 1 μM cisplatin, FIG. 5
  PARP activity (ratio of 89 kd active form to 116 kd inactive form): significantly increased (p<0.01)
[15]; 24 μM GC4419 added to 6 Gy IR, vs radiation alone, FIG. 5
  PARP activity (ratio of 89 kd active form to 116 kd inactive form): significantly increased PARP activity over that seen with radiation alone
[16]; with CAT overexpression (doxycycline induced)
  surviving fraction of cells: abrogated the GC4419 contribution to cisplatin response
[16]; without CAT overexpression (wt), vs cisplatin alone
  surviving fraction of cells: decreased the surviving fraction
[17]
  VEGFr inhibitor-induced pulmonary disease: attenuate VEGFr inhibitor-induced pulmonary disease

## N.N.[Cl][Pt][Cl] [cisplatin, reference compound]
[6]; [20]
  H2O2: increase in H2O2
[7]; [20]
  total ROS (CellROX signal): increased total ROS
[14]; [20]
  mitochondrial superoxide (MitoSOX signal): increase in mitochondrial superoxide
